Assay results: article PMC12198407, “Preclinical and first-in-human of purinostat mesylate, a novel selective HDAC I/IIb inhibitor, in relapsed/refractory multiple myeloma and lymphoma” (Signal Transduction and Targeted Therapy, 2025)
Entries after “also recorded” stand apart in the source; their conditions may differ.

Assays:
[1] = Phase I trial NCT05526313, safety and tolerability (adverse events, CTCAE 5.0)
[2] = biological target: human ether-à-go-go-related gene (hERG) channel (Homo sapiens, UniProt Q12809); assay: hERG inhibition; format: biochemical
[3] = human, in vivo
Solubility of the API = format: physicochemical

Sequence of human ether-à-go-go-related gene (hERG) channel (Q12809 whole entry): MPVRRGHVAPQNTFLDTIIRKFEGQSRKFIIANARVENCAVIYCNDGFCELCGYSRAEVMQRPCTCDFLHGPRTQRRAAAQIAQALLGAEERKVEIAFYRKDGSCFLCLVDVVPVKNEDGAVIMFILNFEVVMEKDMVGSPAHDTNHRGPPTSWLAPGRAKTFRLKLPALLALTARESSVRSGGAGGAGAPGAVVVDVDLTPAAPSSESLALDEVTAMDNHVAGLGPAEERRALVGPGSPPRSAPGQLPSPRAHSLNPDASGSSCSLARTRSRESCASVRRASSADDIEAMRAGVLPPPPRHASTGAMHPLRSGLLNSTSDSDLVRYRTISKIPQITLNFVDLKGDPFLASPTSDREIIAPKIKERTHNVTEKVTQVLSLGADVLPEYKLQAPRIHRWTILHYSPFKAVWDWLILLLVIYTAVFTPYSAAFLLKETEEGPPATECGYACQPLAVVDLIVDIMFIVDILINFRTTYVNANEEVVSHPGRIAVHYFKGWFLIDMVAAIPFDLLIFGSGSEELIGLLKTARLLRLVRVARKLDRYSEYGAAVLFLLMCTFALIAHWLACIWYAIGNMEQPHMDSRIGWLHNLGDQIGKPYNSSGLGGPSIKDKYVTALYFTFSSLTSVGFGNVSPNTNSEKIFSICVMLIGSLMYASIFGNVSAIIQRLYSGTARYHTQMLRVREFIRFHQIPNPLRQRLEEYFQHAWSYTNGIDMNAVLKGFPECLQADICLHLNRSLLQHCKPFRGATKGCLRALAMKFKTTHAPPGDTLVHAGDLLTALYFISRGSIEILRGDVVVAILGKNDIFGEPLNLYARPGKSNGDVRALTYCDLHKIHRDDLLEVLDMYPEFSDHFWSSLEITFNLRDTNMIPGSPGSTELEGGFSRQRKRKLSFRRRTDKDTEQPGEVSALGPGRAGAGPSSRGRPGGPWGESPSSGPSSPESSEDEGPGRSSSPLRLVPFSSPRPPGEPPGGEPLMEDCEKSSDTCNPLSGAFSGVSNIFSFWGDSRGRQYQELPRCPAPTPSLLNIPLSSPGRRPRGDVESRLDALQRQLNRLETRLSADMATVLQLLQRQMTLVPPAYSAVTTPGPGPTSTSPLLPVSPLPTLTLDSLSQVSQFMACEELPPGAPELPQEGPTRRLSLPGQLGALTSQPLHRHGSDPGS

CN(Cc1nc2c(N3CCOCC3)nc(-c3ccc(N)cc3)nc2n1C)c1ncc(C(=O)NO)cn1.CS(=O)(=O)O [PM, 2-(((2-(4-Aminophenyl)-9-methyl-6-(4-morpholinyl)-9H-purine-8-yl)methyl)methylamino)-N-hydroxy-5-pyrimidine-carboxamide Mesylate]
dose-limiting toxicity (DLT) ([1]; 1.2–15 mg/m^2): no dose-limiting toxicities observed; also recorded: no dose-limiting toxicity (DLT) events occurred; also recorded: no arrhythmias or DLT were observed | grade 5 events ([1]; 29 treated patients): no grade 5 events reported | patients with grade 3–4 TEAEs ([1]; 29 treated patients): 25 (86.2%) n (%) | COVID-19 ([1]; […]): 1(3.4) n (%) | Investigations (SOC) ([1]; […]): 29(100.0) n (%) | QRS axis abnormalities ([1]; […]): 1(3.4) n (%) | ST segment abnormalities on ECG ([1]; […]): 5(17.2) n (%) | ST-T segment changes on ECG ([1]; […]): 9(31.0) n (%) | T wave abnormalities on ECG ([1]; […]): 9(31.0) n (%) | abdominal discomfort ([1]; […]): 1(3.4) n (%) | abdominal distension ([1]; […]): 4(13.8) n (%) | abdominal pain ([1]; […]): 2(6.9) n (%) | abnormal liver function ([1]; […]): 1(3.4) n (%) | alopecia ([1]; […]): 1(3.4) n (%) | anemia ([1]; […]): 20(69.0) n (%) | angular cheilitis ([1]; […]): 1(3.4) n (%) | appendicitis ([1]; […]): 1(3.4) n (%) | arrhythmia ([1]; […]): 1(3.4) n (%) | arthralgia ([1]; […]): 3(10.3) n (%) | atrial tachycardia ([1]; […]): 1(3.4) n (%) | backache ([1]; […]): 1(3.4) n (%) | bacteremia ([1]; […]): 1(3.4) n (%) | belching ([1]; […]): 1(3.4) n (%) | bleeding gums ([1]; […]): 1(3.4) n (%) | blood and lymphatic system diseases (SOC) ([1]; […]): 20(69.0) n (%) | chill ([1]; […]): 1(3.4) n (%) | conjunctival bleeding ([1]; […]): 1(3.4) n (%) | constipation ([1]; […]): 1(3.4) n (%) | cough ([1]; […]): 1(3.4) n (%) | decreased blood fibrinogen ([1]; […]): 1(3.4) n (%) | decreased lymphocyte count ([1]; […]): 16(55.2) n (%) | decreased monocyte count ([1]; […]): 2(6.9) n (%) | decreased neutrophil count ([1]; […]): 25(86.2) n (%) | decreased platelet count ([1]; […]): 24(82.8) n (%) | decreased white blood cell count ([1]; […]): 24(82.8) n (%) | diarrhea ([1]; […]): 4(13.8) n (%) | dizziness ([1]; […]): 13(44.8) n (%) | duodenogastric reflux ([1]; […]): 1(3.4) n (%) | dyspepsia ([1]; […]): 1(3.4) n (%) | dyspnea ([1]; […]): 1(3.4) n (%) | elevated blood creatine phosphokinase ([1]; […]): 1(3.4) n (%) | elevated blood unconjugated bilirubin ([1]; […]): 1(3.4) n (%) | epigastric pain ([1]; […]): 1(3.4) n (%) | epistaxis ([1]; […]): 2(6.9) n (%) | extraventricular contraction ([1]; […]): 1(3.4) n (%) | eye organ disease (SOC) ([1]; […]): 2(6.9) n (%) | eyelid edema ([1]; […]): 1(3.4) n (%) | facial pain ([1]; […]): 1(3.4) n (%) | fatigue ([1]; […]): 3(10.3) n (%) | fever ([1]; […]): 2(6.9) n (%) | fungal skin infection ([1]; […]): 1(3.4) n (%) | gastritis ([1]; […]): 1(3.4) n (%) | gastroesophageal reflux disease ([1]; […]): 2(6.9) n (%) | gastrointestinal hemorrhage ([1]; […]): 1(3.4) n (%) | gastrointestinal system diseases (SOC) ([1]; […]): 21(72.4) n (%) | head discomfort ([1]; […]): 1(3.4) n (%) | headache ([1]; […]): 14(48.3) n (%) | heart organ diseases (SOC) ([1]; […]): 13(44.8) n (%) | heat and cold intolerance ([1]; […]): 1(3.4) n (%) | hematochezia ([1]; […]): 1(3.4) n (%) | hematuria ([1]; […]): 4(13.8) n (%) | hepatic failure ([1]; […]): 2(6.9) n (%) | hepato-biliary diseases (SOC) ([1]; […]): 3(10.3) n (%) | herpes zoster ([1]; […]): 4(13.8) n (%) | herpesvirus infection ([1]; […]): 1(3.4) n (%) | high voltage on ECG ([1]; […]): 3(10.3) n (%) | hypercalcemia ([1]; […]): 1(3.4) n (%) | hyperglycemia ([1]; […]): 7(24.1) n (%) | hyperlipoidemia ([1]; […]): 4(13.8) n (%) | hypermagnesemia ([1]; […]): 3(10.3) n (%) | hypertension ([1]; […]): 2(6.9) n (%) | hypertriglyceridemia ([1]; […]): 2(6.9) n (%) | hyperuricemia ([1]; […]): 4(13.8) n (%) | hypoalbuminemia ([1]; […]): 1(3.4) n (%) | hypocalcemia ([1]; […]): 7(24.1) n (%) | hypochloremia ([1]; […]): 4(13.8) n (%) | hypokalemia ([1]; […]): 11(37.9) n (%) | hypomagnesemia ([1]; […]): 4(13.8) n (%) | hyponatremia ([1]; […]): 10(34.5) n (%) | hypophosphatemia ([1]; […]): 13(44.8) n (%) | hypotension ([1]; […]): 2(6.9) n (%) | increased blood creatinine ([1]; […]): 2(6.9) n (%) | increased lymphocyte count ([1]; […]): 1(3.4) n (%) | increased monocyte count ([1]; […]): 13(44.8) n (%) | increased serum bilirubin ([1]; […]): 4(13.8) n (%) | increased total bile acid ([1]; […]): 1(3.4) n (%) | increased troponin ([1]; […]): 1(3.4) n (%) | increased urobilinogen in the urine ([1]; […]): 3(10.3) n (%) | increased γ-glutamyl transferase ([1]; […]): 2(6.9) n (%) | infections and infestations diseases (SOC) ([1]; […]): 13(44.8) n (%) | infectious pneumonia ([1]; […]): 1(3.4) n (%) | insomnia ([1]; […]): 1(3.4) n (%) | kidney and urinary system diseases (SOC) ([1]; […]): 6(20.7) n (%) | left ventricular dysfunction ([1]; […]): 1(3.4) n (%) | limb pain ([1]; […]): 2(6.9) n (%) | loss of appetite ([1]; […]): 2(6.9) n (%) | mental disorder (SOC) ([1]; […]): 1(3.4) n (%) | metabolic and nutritional diseases (SOC) ([1]; […]): 23(79.3) n (%) | muscle weakness ([1]; […]): 1(3.4) n (%) | musculoskeletal discomfort ([1]; […]): 1(3.4) n (%) | nasal congestion ([1]; […]): 1(3.4) n (%) | nausea ([1]; […]): 15(51.7) n (%) | oral hypoesthesia ([1]; […]): 2(6.9) n (%) | oral mucositis ([1]; […]): 1(3.4) n (%) | palpitation ([1]; […]): 4(13.8) n (%) | parageusia ([1]; […]): 1(3.4) n (%) | pericardial effusion ([1]; […]): 1(3.4) n (%) | periodontitis ([1]; […]): 1(3.4) n (%) | peripheral edema ([1]; […]): 1(3.4) n (%) | petechia ([1]; […]): 2(6.9) n (%) | proteinuria ([1]; […]): 1(3.4) n (%) | pruritus ([1]; […]): 3(10.3) n (%) | pulmonary inflammation ([1]; […]): 1(3.4) n (%) | rash ([1]; […]): 3(10.3) n (%) | reduced intake ([1]; […]): 10(34.5) n (%) | renal failure ([1]; […]): 1(3.4) n (%) | respiratory tract infection ([1]; […]): 1(3.4) n (%) | right bundle branch block ([1]; […]): 1(3.4) n (%) | sinus bradycardia ([1]; […]): 1(3.4) n (%) | sinus tachycardia ([1]; […]): 7(24.1) n (%) | skin and subcutaneous tissue diseases (SOC) ([1]; […]): 10(34.5) n (%) | skin pain ([1]; […]): 1(3.4) n (%) | skin xerosis ([1]; […]): 2(6.9) n (%) | soft tissue infection ([1]; […]): 1(3.4) n (%) | supraventricular extraventricular contraction ([1]; […]): 2(6.9) n (%) | systemic diseases and various reactions at the administration site (SOC) ([1]; […]): 19(65.5) n (%) | tachypnea ([1]; […]): 3(10.3) n (%) | tongue ulcer ([1]; […]): 1(3.4) n (%) | upper respiratory tract bacterial infection ([1]; […]): 1(3.4) n (%) | upper respiratory tract infection ([1]; […]): 3(10.3) n (%) | urinary tract infection ([1]; […]): 3(10.3) n (%) | urine protein detection ([1]; […]): 4(13.8) n (%) | various musculoskeletal and connective tissue diseases (SOC) ([1]; […]): 7(24.1) n (%) | various neurological diseases (SOC) ([1]; […]): 19(65.5) n (%) | vascular and lymphatic diseases (SOC) ([1]; […]): 3(10.3) n (%) | ventricular hypokinesia ([1]; […]): 1(3.4) n (%) | vesicular rash ([1]; […]): 1(3.4) n (%) | vomit ([1]; […]): 15(51.7) n (%) | weakness ([1]; […]): 14(48.3) n (%) | ST segment abnormalities on ECG ([1]; […], second line of this term): 1(3.4) n (%) | hypermagnesemia ([1]; […], second line of this term): 2(6.9) n (%) | Grade ≥3 lymphopenia ([1]; all doses, N = 29): 31.0% | Grade ≥3 thrombocytopenia ([1]; all doses, N = 29): 75.9% | IC50 [2]: > 100 µM | QT interval prolongation on ECG [3]: 10(34.5) n (%) | cardiac toxic adverse events [3]: no grade 3 or higher events occurring | transient QTc interval prolongation, grade [3]: ≤ 2 grade | Solubility (Solubility of the API; 0.1 mol/L hydrochloric acid solution): practically insoluble | Solubility (Solubility of the API; 0.1 mol/L sodium hydroxide solution): very slightly soluble | Solubility (Solubility of the API; dimethyl sulfoxide): soluble | Solubility (Solubility of the API; dimethylformamide): slightly soluble | Solubility (Solubility of the API; ethanol, ethyl acetate, or chloroform): practically insoluble | Solubility (Solubility of the API; methanol): very slightly soluble
